Where two headings read alike, the source gives them in different places.
Key:
[1] = for Brain radioactivity level / CSF radioactivity level / Plasma radioactivity level: mean; for Brain/Plasma Ratio / CSF/Plasma Ratio: mean ± SD
Procedure: Animals. Sprague Dawley rats were supplied by the University of Melbourne Biological Research Facility and housed in groups of 2–4 (adult) or full litters per cage (25cm x 35cm x 25cm on Breeders Choice paper bedding, made from 99% recycled paper; it is biodegradable with no added chemicals), on a 12 h light/dark cycle with ad libitum access to food (dry pellets of a fixed formulation diet for laboratory rats and mice fortified with vitamins and minerals to meet the requirements of breeding animals after the diet is autoclaved or irradiated, supplied by Speciality Feeds, Western Australia) and water. Age groups investigated (at treatment completion) were time mated pregnant females at E19 (350-400g body weight), postnatal pups at P4 and non-pregnant female adults (175-230g body weight). E19 was chosen because this is a stage of development when adequate volumes of blood and CSF can be obtained for analysis from fetal rats without pooling ( [Dziegielewska et al., 1981]) and individual pups can be injected intraperitoneally while still inside the uterine horn and kept viable for periods of time. P4 was chosen because its stage of brain development is similar to that of very prematurely born but viable human infants of 22–24 weeks gestation ( [Clancy et al., 2001]). Animal numbers were based on previous experience of such experiments and were the minimum number required to detect a significant difference between groups at P <0.05.
Drug doses. Drug doses were selected based on use in clinical practice ( [Australian Medicines Handbook, 2019]) and adjusted for body weight.
(§1) Experimental procedure. In acute drug experiments, a single dose was injected that included traces of [ ^3H]-labelled drug (20µCi adults, 2µCi newborns). In chronic experiments, doses of unlabelled drug were given twice daily (09.00 and 17.00h) for four days before a final injection on the 5 ^th day identical to acute experiments. In passive marker experiments, all dosing was acute and contained only the [ ^3H]- or [ ^14C]-labelled compound (20µCi adults, 2µCi newborns).
(§2) In all experiments involving postnatal animals, injections were intraperitoneal (i.p.). In pregnant animals for fetal drug entry studies, the final injection of the radiolabelled marker was given intravenously (i.v.), as the peritoneal cavity required opening prior to the sampling period to gain access to the fetuses. For passive markers (L-glucose, sucrose and glycerol), fetal animals were individually injected i.p. while still within the uterine horn. All experiments took place between 09.00 and 15.00h. All pregnancy studies were completed with a single treatment group on one day. Postnatal groups were conducted with a single treatment group on one day or with the chronic group completed prior to the acute group.
(§3) Sample collection. Samples were collected 30 minutes after the final injection. This duration was chosen partly to limit any potential metabolism of the drugs and markers used but also to allow enough time for i.p. injected markers to reach the blood stream and, from there, to access the brain parenchyma across brain barriers, as well as to limit the CSF sink effect that could influence drug levels ( [Bito et al., 1966]). Thirty minutes is also within the half-life of these drugs ( [Adedoyin et al., 1987]; [Harrison & Gibaldi, 1976]; Lin & Levy, 1963). The other reason a 30-minute duration was chosen is that in the case of exposed fetal rat pups, it is difficult to maintain them in a reasonable physiological state for long periods due to deterioration of placental perfusion. Therefore, for comparative purposes, all studies were conducted at the same time.
For adult and newborn (P4) experiments, animals were terminally anaesthetized using inhaled isofluorane (IsoFlo 100% w/w, Abbott Laboratories).

[2] = Sprague Dawley, rat, in vivo
[3] = Placental transfer at E19 (fetal/maternal plasma concentration ratio); conditions: E19, passive permeability markers, acute; for Fetal/Maternal plasma concentration ratio: mean ± SD
[4] = Entry of "passive" markers into brain and CSF; conditions: passive marker, all ages (E19, P4, adults), 30 minutes
Procedure: as §1, §2, §3
For adult and newborn (P4) experiments, animals were terminally anaesthetized using inhaled isofluorane (IsoFlo 100% w/w, Abbott Laboratories). Blood samples were collected from the right cardiac ventricle, CSF from the cisterna magna (Habgood et al., 1992) and cortical segments of brain tissue dorsal to the ventricle of the frontal/parietal lobes, as previously described ( [Koehn et al., 2019]). Blood and CSF sampling from the P4 animals was terminal and would thus not have affected the physiological state of the animals during the experiment.
Sample preparation. Samples were processed immediately after collection. Blood was centrifuged at 7000rpm for five minutes and the plasma separated. CSF samples were examined microscopically for traces of red blood cells and discarded if contaminated (Habgood et al., 1992). In all experiments, the radioactivity in the injectate was also measured to confirm the uniformity of the injected material. All samples were weighed and transferred into scintillation vials. Soluene350 (0.5ml, PerkinElmer) was added to the brain samples. After being incubated at 36°C overnight to allow the tissue to solubilize, two drops of glacial acetic acid (Sigma) were added to neutralize the strongly alkaline Soluene350. All samples were then mixed with 5ml of scintillation fluid (Emulsifier-safe, PerkinElmer) before being transferred into the liquid scintillation counter (Tri-Carb 4910 TR, PerkinElmer) to count radioactivity disintegrations per minute (DPM) over five minutes each with luminescence correction on. Blank vials containing the same tissues without radioactivity were also counted alongside the samples to establish the level of background counts, which were always subtracted from the radioactivity counts of the corresponding experimental samples.
BrainorCSFtransfer=BrainorCSFDPM/μl/plasmaDPM/μl×100%

[5] = E19 fetuses, acute, 30 min - […] after administration
[6] = E19 fetuses, acute, listed as cimetidine
[7] = E19 fetuses, chronic (twice daily over five days), 30 min - […] after final dose
[8] = P4, acute, 30 min, listed as cimetidine
[9] = P4, chronic i.p. (twice daily over five days), 30 min after final dose
[10] = adult, acute, 30 min, listed as cimetidine
[11] = adult, chronic i.p. (twice daily over five days), 30 min after final dose
[12] = choroid plexus (lateral ventricular), E19
[13] = choroid plexus (lateral ventricular), P4
[14] = choroid plexus (lateral ventricular), adult

Structure (SMILES): CN/C(=N/CCSCc1nc[nH]c1C)NC#N [Cimetidine]
- transfer from maternal blood to fetal brain ([1]; E19, acute): 17%
- Brain radioactivity level [1, 5]: 7.3 DPM/µg
- CSF radioactivity level [1, 5]: 7.0 DPM/µl
- Plasma radioactivity level [1, 5]: 13.0 DPM/µl
- Brain/Plasma Ratio ([1]; E19 fetuses, acute): 56 ± 10%
- CSF/Plasma Ratio ([1]; E19 fetuses, acute): 54 ± 11%
- Brain/Plasma Ratio [1, 6]: 56%
- CSF/Plasma Ratio [1, 6]: 54%
- Brain radioactivity level [1, 7]: 8.8 DPM/µg
- CSF radioactivity level [1, 7]: 8.4 DPM/µl
- Plasma radioactivity level [1, 7]: 13.3 DPM/µl
- Brain/Plasma Ratio ([1]; E19 fetuses, chronic): 65 ± 19%
- CSF/Plasma Ratio ([1]; E19 fetuses, chronic): 63 ± 15%
- Brain radioactivity level ([1]; P4, acute i.p., 30 min): 37.2 DPM/µg
- CSF radioactivity level ([1]; P4, acute i.p., 30 min): 24.3 DPM/µl
- Plasma radioactivity level ([1]; P4, acute i.p., 30 min): 310.9 DPM/µl
- Brain/Plasma Ratio ([1]; P4, acute, 30 min): 12 ± 1%
- CSF/Plasma Ratio ([1]; P4, acute, 30 min): 8 ± 1%
- Brain/Plasma Ratio [1, 8]: 12%
- CSF/Plasma Ratio [1, 8]: 8%
- Brain radioactivity level [1, 9]: 45.7 DPM/µg
- CSF radioactivity level [1, 9]: 27.8 DPM/µl
- Plasma radioactivity level [1, 9]: 373.2 DPM/µl
- Brain/Plasma Ratio ([1]; P4, chronic, 30 min): 12 ± 2%
- CSF/Plasma Ratio ([1]; P4, chronic, 30 min): 7 ± 1%
- transfer into maternal brain (brain/maternal blood) ([1]; acute): 13%
- Brain radioactivity level ([1]; adult, acute i.p., 30 min): 6.2 DPM/µg
- CSF radioactivity level ([1]; adult, acute i.p., 30 min): 6.0 DPM/µl
- Plasma radioactivity level ([1]; adult, acute i.p., 30 min): 55.9 DPM/µl
- Brain/Plasma Ratio ([1]; adult, acute, 30 min): 13 ± 5%
- CSF/Plasma Ratio ([1]; adult, acute, 30 min): 12 ± 3%
- Brain/Plasma Ratio [1, 10]: 13%
- CSF/Plasma Ratio [1, 10]: 12%
- Brain radioactivity level [1, 11]: 11.6 DPM/µg
- CSF radioactivity level [1, 11]: 11.1 DPM/µl
- Plasma radioactivity level [1, 11]: 90.7 DPM/µl
- Brain/Plasma Ratio ([1]; adult, chronic, 30 min): 13 ± 1%
- CSF/Plasma Ratio ([1]; adult, chronic, 30 min): 12 ± 1%
- abcc4 expression, fold change chronic vs acute (abcc4 (MRP4); brain cortex, E19): 0.98 fold
- abcc4 expression, fold change chronic vs acute (abcc4 (MRP4); brain cortex, P4): 1.18 fold
- abcc4 expression, fold change chronic vs acute (abcc4 (MRP4); brain cortex, adult): 1.00 fold
- abcc4 expression, fold change chronic vs acute (abcc4 (MRP4); [12]): 1.17 fold
- abcc4 expression, fold change chronic vs acute (abcc4 (MRP4); [13]): 1.12 fold
- abcc4 expression, fold change chronic vs acute (abcc4 (MRP4); [14]): ↑ 1.49 fold
- abcc4 expression, fold change chronic vs acute (abcc4 (MRP4); placenta, E19): 0.69 fold
- abcb1b expression, fold change chronic vs acute (abcb1b (PGP); brain cortex, E19): 1.09 fold
- abcb1b expression, fold change chronic vs acute (abcb1b (PGP); brain cortex, P4): 1.03 fold
- abcb1b expression, fold change chronic vs acute (abcb1b (PGP); brain cortex, adult): 0.87 fold
- abcb1b expression, fold change chronic vs acute (abcb1b (PGP); [12]): 1.66 fold
- abcb1b expression, fold change chronic vs acute (abcb1b (PGP); [13]): 1.00 fold
- abcb1b expression, fold change chronic vs acute (abcb1b (PGP); [14]): 1.15 fold
- abcb1b expression, fold change chronic vs acute (abcb1b (PGP); placenta, E19): 1.00 fold
- abcc2 expression, fold change chronic vs acute (abcc2 (MRP2); brain cortex, E19): 0.96 fold
- abcc2 expression, fold change chronic vs acute (abcc2 (MRP2); brain cortex, P4): ↓ 0.92 fold
- abcc2 expression, fold change chronic vs acute (abcc2 (MRP2); brain cortex, adult): 1.00 fold
- abcc2 expression, fold change chronic vs acute (abcc2 (MRP2); [12]): 1.19 fold
- abcc2 expression, fold change chronic vs acute (abcc2 (MRP2); [13]): 1.04 fold
- abcc2 expression, fold change chronic vs acute (abcc2 (MRP2); [14]): 0.86 fold
- abcc2 expression, fold change chronic vs acute (abcc2 (MRP2); placenta, E19): *10.07 fold
- abcg2 expression, fold change chronic vs acute (abcg2 (BCRP); brain cortex, E19): 0.80 fold
- abcg2 expression, fold change chronic vs acute (abcg2 (BCRP); brain cortex, P4): 1.11 fold
- abcg2 expression, fold change chronic vs acute (abcg2 (BCRP); brain cortex, adult): 0.98 fold
- abcg2 expression, fold change chronic vs acute (abcg2 (BCRP); [12]): 1.01 fold
- abcg2 expression, fold change chronic vs acute (abcg2 (BCRP); [13]): 0.73 fold
- abcg2 expression, fold change chronic vs acute (abcg2 (BCRP); [14]): 0.91 fold
- abcg2 expression, fold change chronic vs acute (abcg2 (BCRP); placenta, E19): 1.24 fold
- abcb1a expression, fold change chronic vs acute (abcb1a (PGP); brain cortex, E19): 0.93 fold
- abcb1a expression, fold change chronic vs acute (abcb1a (PGP); brain cortex, P4): ↑ 1.23 fold
- abcb1a expression, fold change chronic vs acute (abcb1a (PGP); brain cortex, adult): 1.06 fold
- abcb1a expression, fold change chronic vs acute (abcb1a (PGP); [12]): 1.73 fold
- abcb1a expression, fold change chronic vs acute (abcb1a (PGP); [13]): 1.72 fold
- abcb1a expression, fold change chronic vs acute (abcb1a (PGP); [14]): 1.06 fold
- abcb1a expression, fold change chronic vs acute (abcb1a (PGP); placenta, E19): 0.86 fold
- abcc3 expression, fold change chronic vs acute (abcc3 (MRP3); brain cortex, E19): 0.81 fold
- abcc3 expression, fold change chronic vs acute (abcc3 (MRP3); brain cortex, P4): 1.12 fold
- abcc3 expression, fold change chronic vs acute (abcc3 (MRP3); brain cortex, adult): 1.18 fold
- abcc3 expression, fold change chronic vs acute (abcc3 (MRP3); [12]): 1.46 fold
- abcc3 expression, fold change chronic vs acute (abcc3 (MRP3); [13]): 1.05 fold
- abcc3 expression, fold change chronic vs acute (abcc3 (MRP3); [14]): 1.12 fold
- abcc3 expression, fold change chronic vs acute (abcc3 (MRP3); placenta, E19): 0.96 fold
- abcc5 expression, fold change chronic vs acute (abcc5 (MRP5); brain cortex, E19): 0.97 fold
- abcc5 expression, fold change chronic vs acute (abcc5 (MRP5); brain cortex, P4): ↑ 1.24 fold
- abcc5 expression, fold change chronic vs acute (abcc5 (MRP5); brain cortex, P4, listed as cimetidine): 1.24 fold
- abcc5 expression, fold change chronic vs acute (abcc5 (MRP5); brain cortex, adult): 1.11 fold
- abcc5 expression, fold change chronic vs acute (abcc5 (MRP5); [12]): 1.19 fold
- abcc5 expression, fold change chronic vs acute (abcc5 (MRP5); [13]): 0.86 fold
- abcc5 expression, fold change chronic vs acute (abcc5 (MRP5); [14]): 1.21 fold
- abcc5 expression, fold change chronic vs acute (abcc5 (MRP5); placenta, E19): 1.14 fold
- abcc1 expression, fold change chronic vs acute (abcc1 (MRP1); brain cortex, E19): 1.00 fold
- abcc1 expression, fold change chronic vs acute (abcc1 (MRP1); brain cortex, P4): 1.11 fold
- abcc1 expression, fold change chronic vs acute (abcc1 (MRP1); brain cortex, adult): 1.20 fold
- abcc1 expression, fold change chronic vs acute (abcc1 (MRP1); [12]): 1.28 fold
- abcc1 expression, fold change chronic vs acute (abcc1 (MRP1); [13]): 0.96 fold
- abcc1 expression, fold change chronic vs acute (abcc1 (MRP1); [14]): 1.06 fold
- restriction of transfer by the placenta [2]: ~70%

Structure (SMILES): O=C[C@@H](O)[C@H](O)[C@@H](O)[C@@H](O)CO [L-Glucose, L-glucose]
- Fetal/Maternal plasma concentration ratio, range [3]: (8.3 - 27.7) %
- Fetal/Maternal plasma concentration ratio [3]: 16.7 ± 6.5%
- Fetal/Maternal plasma concentration ratio ([3]; listed as L-glucose): 16.7%
- Brain/Plasma Ratio [4]: very low
- CSF/Plasma Ratio [4]: very low
